Patent publication US7132286B2, “Method for neural stem cell differentiation using valproate” (Psychiatric Genomics, Inc., priority 2001, dated 2006)
Entries after “also recorded” stand apart in the source; their conditions may differ.

Tests used:
[1] = system: rat cortical stem cells; assay: Neuronal differentiation of rat cortical stem cells (β-tubulin III immunofluorescence, cell counting); format: cell-based
Text: Isolation of cortical and striatal stem cells. Timed pregnant Sprague Dawley rats were obtained from Taconic at embryonic age E14–E15 were sacrificed by inhalation of excess carbon dioxide. The abdomen of the rat was cleaned with 70% ethanol and the uterus was removed quickly and aseptically on the bench top. The uterus was placed in ice cold HBSS (GIBCO Cat. #20012-027) in a 10 cm petridish. After rinsing the uterus in PBS, embryos were removed from the uterus, rinsed in HBSS and collected in cold HBSS (buffered with HEPES and sodium bicarbonate) in a 10 cm petridish and placed on ice.
Plating, expansion and passaging of cortical and striatal stem cells. A generous amount of the triturated cell suspension was left in the original 15 ml tube to avoid fibroblast contamination in cultures. About 4–5 ml of the 6 ml of cells suspension was used for plating. Cells were plated at a concentration of 1.3×10^3 cells to 3.0×10^3 per cm^2 in 100 mm dish. This culture is designated P0 (passage 0).
Following plating cells were expanded for about 3–4 days (Passage 1, P1). Cells were treated daily with 10 ng/ml bFGF. The cultures were never permitted to reach more than 70% confluency. Cultures were then passaged as follows: 10 ml of HBSS without Ca^2+ and Mg^2+ was added to each 100 mm dish and the cells incubated at 37° C. for 5–15 minutes, or until sufficient numbers of the stem cells were rounded up. It is not expected that all cells in the culture will round up as there are several cell types in the culture at P0. The pH of the HBSS should be neutral at all times during this incubation. Cells were then removed from the dish by pipetting with a 5 ml pipette, and collected in a 15 or 50 ml conical tube, and centrifuged at 1000 g for 5 minutes. Cells were gently re-suspended in medium, counted, and plated at a density of 1×10^6 cells in 10 cm dishes and expanded for about 2 days in bFGF (Passage 1, P1). At that time the cells were passaged as described and plated onto pre-coated poly-L-ornithine/fibronectin vessels at concentrations indicated below for each experiment. Cells were treated with bFGF for 2 additional days. Before each treatment the bFGF was removed from the cells by washing twice with DMEM/F 12 to induce cell differentiation. For neurite outgrowth experiments, cells were seeded at 5×10^3 cells/well in 24-well plates and treated immediately.
(§1) Drug treatment. For immunofluorescence and Western analysis, cells were treated daily with either 0.5 mM of valproate (Sigma), 10 ng/ml of BDNF (R & D Systems), 20 ng/ml of NT-3 (R & D Systems), 1 nM 9cis retinoic acid (Sigma) or a dilution of NCM for 6 or 7 days. In some experiments valproate was also added with NCM and/or 9cis RA for 7 days. For human stem cell experiments, valproate (0.5 mM) or BDNF (25 ng/ml) was added for 9 days. For neurite outgrowth experiments, cells were treated for 1 day with 0.5 mM valproate or 50 ng/ml of BDNF. Where applicable, medium was changed every 2 days. After about 5–10 days, preferably on day 6 (i.e., after 6 days of drug exposure) the cells were fixed with a 4% solution of para-formaldehyde (PFA) in PBS, prepared as follows:
Immunofluorescent staining and visualization. Cells were plated at 20,000 cells/well in poly-L-ornithine/fibronectin (1 mg/ml) coated 24-well plates. After fixation, the PBS was aspirated from the fixed cells and the cells were treated with blocking solution (10% normal goat serum-NGS-Jackson Labs), 0.3% Triton-Sigma, in PBS) to saturate non-specific sites and permeabilize the cells. […]

[2] = system: rat cortical stem cells; assay: Differentiation of rat cortical stem cells into GABA expressing cells (GABA immunocytochemistry); format: cell-based; settings: 6 days valproate vs control
Protocol: as §1, with “follows: Immunofluorescent staining and visualization. Cells were plated at 20,000 cells/well in poly-L-ornithine/fibronectin (1 mg/ml) coated 24-well plates. […] For immunofluorescence, 3 different black and white pictures were taken by field of interest with a digital camera CoolSnap Fx (Princeton) corresponding to the exposure of Cy2, Cy3 and Hoechst fluorescence. […] The percentage of neurons, astrocytes and GABAergic cells was determined by comparing the number of cells immunopositive for β-tubulin III, GFAP and GABA to the number of bis-benzamide stained nuclei (i.e., total cell number). […]” for “follows:”

[3] = rat cortical stem cells, 6 days, vs control

For CCCC(CCC)C(=O)O [valproate, 2-Propylpentanoic acid], the “increase of percentage of β-tubulin III expressing neurons over the control” value ([1]; rat cortical neural stem cells, 6 days) was ~5 fold, the morphology of neurons ([1]; rat cortical stem cells, 6 days valproate) was “growing in clusters and had longer process than cells in control” and the “effect on neuronal differentiation (percentage of β-tubulin-III expressing cells) in words” value [1, 3] was “increases neuronal differentiation more efficiently than neurotrophins or growth factors”. For the same compound, the “effect on number of neurons per field” value [1, 3] was “increases the number of neurons”, the “effect on total cell number (proliferation), bis-benzimide nuclei” value [1, 3] was “without valproate affecting the total cell number; also recorded: total number of cells is comparable to control; also recorded: does not inhibit neural stem cell proliferation” and the “percentage of β-tubulin III expressing neurons (mean+SD)” value ([1]; rat cortical stem cells, daily treatment 6 days, 0.5 mM valproate, 10 ng/ml BDNF, 20 ng/ml NT-3, untreated control 6.2+1.8%) was 25.8+0.8%. The “neuronal differentiation compared to control, in words” value ([1]; rat cortical stem cells, daily treatment 7 days, 0.5 mM valproate, 0.5× NCM, 1 nM 9-cis RA) was “increased the neuronal differentiation”, the “maximum percentage of neurons” value ([1]; valproate added with 9-cis RA and NCM, 7 days, rat cortical stem cells) was 60% and the “number and percentage of cells immuno-positive for GABA” value [2] was “dramatic increase in the number; also recorded: increase in the number of GABA-positive neurons”.
